# Experimental data taken from US20240287063A1, “METHIONINE ADENOSYLTRANSFERASE 2A INHIBITOR” (NANJING CHIA TAI TIANQING PHARMACEUTICAL CO., LTD., priority 2021, published 2024).
# What was measured:
# MAT2A enzyme = biological target: T1, MAT2A enzyme (Homo sapiens, UniProt P31153); experiment: Enzymatic testing method for MAT2A (Biomol Green, OD620); format: biochemical; details: score by IC50 for inhibiting MAT2A; read-out: MAT2A inhibition score
# T1 construct: purchased BPS 71401
# Protocol: • a) A 5×MAT2A test buffer (250 mM Tris-HCl, pH 8.0; 250 mM KCl; 75 mM MgCl2; 0.025% BSA; 0.05% Brij35; 1.5 mM EDTA) was first prepared and partially diluted to 1× for later use; • b) Preparation and addition of MAT2A enzyme (BPS, 71401): the MAT2A enzyme was prepared into 3.674 ng/L by using the 1×MAT2A test buffer (1.67×, final concentration 2.20 ng/L), a BioTek (MultiFlo FX) automatic liquid separator was used, 15 μL of 1.67×MAT2A enzyme solution was added to compound test wells and negative control wells respectively, and 15 μL of 1×MAT2A test buffer was added to blank control wells; • c) Preparation and addition of a compound: a compound to be tested was diluted with DMSO from 10 mM stock solution to 100 μM, a positive drug AGI-24512 was diluted under the same conditions, and the diluted compound and positive drug were automatically sprayed into each well by using a Tecan compound titrator (D300e) according to preset concentration gradients, where the spray volume was little and negligible. The concentration gradient was initially 1 μM, the dilution was implemented by ½ log, and a total of 8 gradients were set. Centrifugation at 2500 rpm for 30 s and incubation at 25° C. for 30 min were performed; • d) Preparation of ATP: 10 mM ATP (Sigma, A7699) was diluted with 1×MAT2A test buffer to 700 μM for later use; • e) Preparation and addition of a substrate and ATP mixture: 5×MAT2A test buffer, 3 μL/well; 750 μM L-methionine (Adamas, 01100469), 2.5 μL/well; 700 μM ATP, 2.5 μL/well; and double distilled water, 2 μL/well. A total amount of required mixture was prepared according to the number of test wells, and 10 μL of the mixture was added to each well by using the BioTek (MultiFlo FX) automatic liquid separator, followed by centrifugation at 2500 rpm for 30 s and reaction at 25° C. for 150 min; • f) Addition of Biomol Green detection reagent: 50 μL of Biomol Green (Enzo, BML-AK111) was added to each well by using the BioTek (MultiFlo FX) automatic liquid separator, followed by centrifugation at 2500 rpm for 30 s and incubation at 25° C. for 20 minutes; • g) After the reaction, OD620 values were read by using a Perkin Elmer (Envision 2105) multifunctional plate reader.
# A formula for calculating an inhibition rate was as follows: […]
# Wherein, • % Inhibition: inhibition rate % • ODsample: OD620 value in a sample well; • ODmin: representing a mean OD620 value of blank control wells without the enzyme or compound to be tested; • ODmax: representing a mean OD620 value of negative control wells with the enzyme and without the compound.
# Then a dose-effect curve log(inhibitor) vs. response-Variable slope was fitted by usingGraphPad Prism 5 software to obtain an IC50 value of compound for MAT2A enzyme inhibition.
# [1] = tested on: HCT116 MTAP−/− subcutaneous xenograft tumors; experiment: In vivo effect experiment of HCT116 MTAP−/− subcutaneous xenograft tumors in nude mice
# Protocol: Female Nu/Nu nude mice (6-8 weeks old, Beijing Vital River Laboratory Animal Technology Co., Ltd.) were raised in an SPF animal room at a temperature of 20° C.-25° C., relative humidity of 40%-70%, and light and dark lighting for 12 hours each; and animals can freely drink and eat. The animals were adaptively fed before experiment.
# HCT116 MTAP^−/− cells (Horizon) were cultured in vitro for proliferation, cells in logarithmic growth phase were collected and resuspended in a serum-free RPMI-1640 medium, and the cell concentration was adjusted to 6.0×10^7 cells/mL; and 100 μL of the cell suspension was injected subcutaneously into the right anterior armpit of each nude mouse by using a 1 mL syringe, the status of the animals was observed regularly, and the growth of transplanted tumors was monitored regularly.
# When the tumor volume reached 100-300 mm^3, animals with too large or too small tumor volume or uncertain tumor formation were eliminated, and tumor bearing mice with good health and similar tumor volume were selected and randomly grouped, 6 mice in each group; the administration group received daily intragastric administration (AG-270: 50 mg/kg, with a structure shown below; compound to be tested: 1-7.5 mg/kg); and the control group was intragastrically administrated with the same volume of blank solvent. In the administration period, the tumor diameter was measured twice a week, the tumor volume was calculated, the animals were weighed, and their weight was recorded.
# A formula for calculating tumor volume (TV) is: Tv=½×a×b^2, wherein a represents long diameter of the tumor, and b represents short diameter of the tumor.
# Experimental data is calculated and statistically processed by using Microsoft Office Excel 2007 software. Unless otherwise specified, the data were expressed as mean±standard error (Mean SEM), and t-test is used for comparison between two groups.
# Growth curves of tumor volume in each group are shown in FIG. 1, results of SAM test in tumors of each group are shown in FIG. 2, and the mean tumor volume and SEM in each group are shown in Table 2 below: […]
# HCT116 MTAP −/− cells = experiment: Cell testing method: HCT116 MTAP-/- cell proliferation inhibition (CellTiter-Glo, 120 h); format: cell-based; details: Homo sapiens, HCT-116; score by IC50 for inhibiting HCT116 MTAP−/− cells
# Protocol: HCT116 MTAP −/− cells (purchased from Horizon Discovery): human colorectal cancer cell lines with MTAP gene deletion were cultured in medium RPMI 1640+10% FBS (Fetal bovine serum). On day 0 of the experiment, the live cell density of the foregoing cells in logarithmic growth phase was adjusted to 5000 cells/ml, the cells were inoculated to a 96-well plate by an amount of 100 μl/well, and a blank group was set in parallel; and the inoculated cell plate was put into a 37° C., 5% CO2 incubator for overnight culture.
# On day 1 of the experiment, the overnight cultured cell plate was taken out, the supernatant was discarded, 80 μl of serum-free RPMI 1640 medium was added to each well, and place the cells in an incubator for starvation cultivation for 4 h. The compound to be tested was dissolved in DMSO (dimethyl sulfoxide) to prepare a 10 mM compound stock solution. After starvation, the cell plate was taken out, and 80 μl of RPMI 1640+20% FBS medium was added to each well; the cell plate was placed on an automatic liquid dispenser D300e (Tecan), and a dosing program was set as follows: a maximum concentration of the compound to be tested was 30 μM, the compound was diluted with DMSO by a 3 times concentration gradient, there was a total of 10 concentrations, two duplicate wells were set for each concentration, and the DMSO final concentration in each well of the 96-well plate was 0.3%, v/v. The pre-prepared 10 mM stock solution of the compound to be tested was taken out, and the above dosing program was run for dosing. After the dosing was completed, the cell plate was placed in incubator and culture for 120 h.
# On day 6 of the experiment, the cell plate was taken out, 50 μl of CellTiter-Go® (purchased from Promega) was added to each well, and fluorescence signal was measured on Envision (PerkinElmer) according to operation procedures in the manual.
# A dose-effect curve: log(inhibitor) vs. response-Variable slope was fitted by using GraphPad Prism 5 software to obtain an IC50 value of the compound for inhibiting cell proliferation inhibition. A formula for calculating an inhibition rate was: […]
# Wherein, • Signal value of tested compound: mean fluorescence signal of cells group+medium group+compound group; • Signal value of blank group: mean fluorescence signal of medium group; • Signal value of negative control group: mean fluorescence signal of cells group+medium group.
# T1 sequence (P31153 whole entry): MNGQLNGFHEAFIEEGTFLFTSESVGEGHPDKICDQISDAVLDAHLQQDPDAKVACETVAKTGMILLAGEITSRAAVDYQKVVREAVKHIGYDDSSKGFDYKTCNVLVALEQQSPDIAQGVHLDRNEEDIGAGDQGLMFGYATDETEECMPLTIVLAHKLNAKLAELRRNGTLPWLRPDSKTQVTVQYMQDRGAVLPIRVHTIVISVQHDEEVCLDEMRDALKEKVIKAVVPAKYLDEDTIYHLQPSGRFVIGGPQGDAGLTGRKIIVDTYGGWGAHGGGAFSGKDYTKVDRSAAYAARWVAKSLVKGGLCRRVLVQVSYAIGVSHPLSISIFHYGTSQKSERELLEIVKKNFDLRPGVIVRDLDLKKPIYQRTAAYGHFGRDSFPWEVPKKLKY
smiles,measurement,setting,value
"Cn1cc2cc(-c3cn4ccc(C5CC5)nc4c(-c4ccc(OC(F)F)cc4)c3=O)ccc2n1 [Example 25, 2-cyclopropyl-9-[4-(difluoromethoxy)phenyl]-7-(2-methyl-2H-indazol-5-yl)-8H-pyrido[1,2-a]pyrimidin-8-one]",IC50,MAT2A enzyme,< 50 nM
same,"Tumor volume, mean volume","[1]; 5 mg/kg daily intragastric, day 1 of administration",152 mm^3
same,"Tumor volume, mean volume","[1]; 5 mg/kg daily intragastric, day 4 of administration",174 mm^3
same,"Tumor volume, mean volume","[1]; 5 mg/kg daily intragastric, day 6 of administration",186 mm^3
same,"Tumor volume, mean volume","[1]; 5 mg/kg daily intragastric, day 8 of administration",219 mm^3
same,"Tumor volume, mean volume","[1]; 5 mg/kg daily intragastric, day 11 of administration",305 mm^3
same,"Tumor volume, mean volume","[1]; 5 mg/kg daily intragastric, day 13 of administration",378 mm^3
same,"Tumor volume, mean volume","[1]; 5 mg/kg daily intragastric, day 15 of administration",417 mm^3
same,IC50,HCT116 MTAP −/− cells,< 150 nM
"Cn1cc2cc(-c3cn4ccc(OCC(F)(F)F)nc4c(-c4ccc(OC(F)F)cc4)c3=O)ccc2n1 [Example 22, 9-[4-(difluoromethoxy)phenyl]-7-(2-methyl-2H-indazol-5-yl)-2-(2,2,2-trifluoroethoxy)-8H-pyrido[1,2-a]pyrimidin-8-one]",IC50,MAT2A enzyme,< 50 nM
same,"Tumor volume, mean volume","[1]; 7.5 mg/kg daily intragastric, day 1 of administration",152 mm^3
same,"Tumor volume, mean volume","[1]; 7.5 mg/kg daily intragastric, day 4 of administration",173 mm^3
same,"Tumor volume, mean volume","[1]; 7.5 mg/kg daily intragastric, day 6 of administration",180 mm^3
same,"Tumor volume, mean volume","[1]; 7.5 mg/kg daily intragastric, day 8 of administration",212 mm^3
same,"Tumor volume, mean volume","[1]; 7.5 mg/kg daily intragastric, day 11 of administration",267 mm^3
same,"Tumor volume, mean volume","[1]; 7.5 mg/kg daily intragastric, day 13 of administration",324 mm^3
same,"Tumor volume, mean volume","[1]; 7.5 mg/kg daily intragastric, day 15 of administration",375 mm^3
same,IC50,HCT116 MTAP −/− cells,< 150 nM
"COc1ccc(-c2cn3ccc(NCC(F)(F)F)nc3c(-c3ccc(OC)cc3)c2=O)cc1 [Example 11, 7,9-bis[(4-methoxyphenyl)]-2-[(2,2,2-trifluoroethyl)amino]-8H-pyrido[1,2-a]pyrimidin-8-one]",IC50,MAT2A enzyme,< 50 nM
same,IC50,HCT116 MTAP −/− cells,< 150 nM
"O=c1c(-c2ccc(OC(F)F)cc2)cn2ccc(C3CC3)nc2c1-c1ccc(OC(F)F)cc1 [Example 23, 2-cyclopropyl-7,9-bis[4-(difluoromethoxy)phenyl]-8H-pyrido[1,2-a]pyrimidin-8-one]",IC50,MAT2A enzyme,< 50 nM
same,"Tumor volume, mean volume","[1]; 1 mg/kg daily intragastric, day 1 of administration",152 mm^3
same,"Tumor volume, mean volume","[1]; 1 mg/kg daily intragastric, day 4 of administration",198 mm^3
same,"Tumor volume, mean volume","[1]; 1 mg/kg daily intragastric, day 6 of administration",205 mm^3
same,"Tumor volume, mean volume","[1]; 1 mg/kg daily intragastric, day 8 of administration",238 mm^3
same,"Tumor volume, mean volume","[1]; 1 mg/kg daily intragastric, day 11 of administration",266 mm^3
same,"Tumor volume, mean volume","[1]; 1 mg/kg daily intragastric, day 13 of administration",284 mm^3
same,"Tumor volume, mean volume","[1]; 1 mg/kg daily intragastric, day 15 of administration",312 mm^3
same,"Tumor volume, mean volume","[1]; 2.5 mg/kg daily intragastric, day 1 of administration",153 mm^3
same,"Tumor volume, mean volume","[1]; 2.5 mg/kg daily intragastric, day 4 of administration",190 mm^3
same,"Tumor volume, mean volume","[1]; 2.5 mg/kg daily intragastric, day 6 of administration",196 mm^3
same,"Tumor volume, mean volume","[1]; 2.5 mg/kg daily intragastric, day 8 of administration",193 mm^3
same,"Tumor volume, mean volume","[1]; 2.5 mg/kg daily intragastric, day 11 of administration",208 mm^3
same,"Tumor volume, mean volume","[1]; 2.5 mg/kg daily intragastric, day 13 of administration",190 mm^3
same,"Tumor volume, mean volume","[1]; 2.5 mg/kg daily intragastric, day 15 of administration",191 mm^3
same,IC50,HCT116 MTAP −/− cells,< 150 nM
"Cn1cc2cc(-c3cn4ccc(C5CC5)nc4c(-c4ccc5c(c4)OC(F)(F)O5)c3=O)ccc2n1 [Example 26, 2-cyclopropyl-9-(2,2-difluoro-1,3-benzodioxol-5-yl)-7-(2-methyl-2H-indazol-5-yl)-8H-pyrido[1,2-a]pyrimidin-8-one]",IC50,MAT2A enzyme,< 50 nM
same,IC50,HCT116 MTAP −/− cells,< 150 nM
